Values of other authors in patent publication EP2899264B1, “EMULSION FOR MICROBIAL GROWTH, METHOD FOR GROWING MICROORGANISMS BY USING SAID EMULSION, AND METHOD FOR PRODUCING MICROBIAL METABOLITE” (Kaneka Corporation, priority 2012, dated 2014).

What was measured:
microorganisms = conditions: used as emulsifier
[1] = for concentration at which the acid aggregates: in water
[2] = test system: Ralstonia eutropha (currently classified as Cupriavidus necator); conditions: sole carbon source
Aeromonas hydrophila = conditions: sole carbon source

Row | Molecule | effect on growth of microorganisms (microorganisms) | PHA productivity [2] [g/L] | concentration at which the acid aggregates [1] [nM] | further results
1 | CCCCCCCCCCCCOS(=O)(=O)[O-].[Na+] [SDS] | inhibit growth of microorganisms | – | – | –
2 | CCCCCCCCCCCC(=O)O [lauric acid] | – | ≤ 1 | – | water solubility [1]: ≤ 100 µg/mL; dry cell weight (Aeromonas hydrophila): about 8 g/L
3 | CCCCCCCCCCCCCC(=O)O [myristic acid] | – | ≤ 1 | – | –
4 | CCCCCCCCCCCCCCCC(=O)O [palmitic acid] | – | – | ≤ 1000 | –
5 | CCCCCCCCCCCCCCCCCC(=O)O [stearic acid] | – | – | ≤ 1000 | –
6 | Triton X-100 | inhibit growth of microorganisms | – | – | –
